Assay results from US12358948B2, “Neurotensinergic agonists and methods of using same preventing or treating pain” (priority 2019, dated 2025).
Where a SMILES comes first, the peptide text is derived from it. Bridges are numbered along the chain shown (N, C = ends). [ ]: non-standard residue; d: D form. Phe(4-tBu) = CC(C)(C)c1ccc(C[C@H](N)C(=O)O)cc1; Bip = N[C@@H](Cc1ccc(-c2ccccc2)cc1)C(=O)O; Ala(cPr) = N[C@@H](CC1CC1)C(=O)O; 2Pal = N[C@@H](Cc1ccccn1)C(=O)O; dAllylGly = C=CC[C@@H](N)C(=O)O; AllylGly = C=CC[C@H](N)C(=O)O; Cba = N[C@@H](CC1CCC1)C(=O)O; Pen = CC(C)(S)[C@H](N)C(=O)O; hLys = NCCCCC[C@H](N)C(=O)O; Orn = NCCC[C@H](N)C(=O)O; Nva = CCC[C@H](N)C(=O)O; Dap = NC[C@H](N)C(=O)O

Tests used:
hNTS2 receptor = biological target: T1, hNTS2 receptor (Homo sapiens, UniProt O95665); test: Competitive radioligand binding assay on the hNTS2 receptor; settings: for IC50: displacement of 125I-[Tyr3]-NT, membranes of 1321N1 cells expressing hNTS2, read-out: IC50 NTS2 (converted); for Selectivity: ratio IC50 for NTS1 : IC50 for NTS2
T1 construct: membranes prepared from them
Experimental: (§1) CHO-K1 (Chinese Hamster Ovary) cells stably expressing hNTS1 and 1321N1 cells stably expressing hNTS2 (ES-690-C and ES-691-C from PerkinElmer, Montréal, Canada) were cultured respectively in Ham's F12 and in DMEM culture media. Culture media were supplemented with 10% FBS, 100 U/mL penicillin, 100 μg/mL streptomycin, 20 mM HEPES, and 0.4 mg/mL G418 at 37° C. in a humidified chamber at 5% CO2.
(§2) The cells expressing hNTS1 were frozen when they reached 80% confluency. They were scrapped off the dish with 10 mM Tris buffer, 1 mM EDTA, pH 7.5 and centrifuged at 15,000 g for 5 min at 4° C. The pellet was then re-suspended in 1 mL binding buffer. The cells expressing hNTS2 were also frozen when they reached 80% confluency. They were scraped off the dish with PBS, 0.5 mM EDTA, pH 7.5 and sonicated for 5 minutes (pulse 30 s/5 s off, amplitude 40%). They were ultracentrifuged at 100 000 g for 60 minutes at 4° C. The pellet was re-suspended in 1 mL freezing buffer (PBS, glycerol, 0.5 mM EDTA), sonicated for 1 minute (pulse 30 s/5 s off, amplitude 50%) and further diluted in binding buffer. Competitive radioligand binding experiments were performed by incubating 15 μg of cell membranes expressing the hNTS1 receptor with […] of ^125I-[Tyr^3]-NT (2200 Ci/mmol) or 50 μg of cell membranes expressing the hNTS2 receptor with […] of ^125I-[Tyr^3]-NT in binding buffer (50 mM Tris-HCl, pH 7.5, 0.2% BSA) in the presence of increasing concentrations of analogues ranging from 10^−11 to 10^−4 M for 60 min at 25° C. After incubation, the binding reaction mixture was transferred in PEI-coated 96-well filter plates (glass fiber filters GF/B, Millipore, Billerica, MA). Reaction was terminated by filtration, and plates were washed three times with 200 μL ice-cold binding buffer. Glass filters were then counted using a γ-counter (2470 Wizard2, PerkinElmer, Mississauga, Ontario, Canada). Non-specific binding was measured in the presence of 10^−5 M unlabeled NT (8-13) and represented less than 5% of total binding. IC50 values were determined from competition curves as the unlabeled ligand concentration inhibiting 50% of ^125I-[Tyr^3]-NT-specific binding.
(§3) Competitive radioligand binding data were plotted using the nonlinear regression One-site-Fit Log(IC50) and represented the mean±SEM of at least three independent experiments in triplicates.

hNTS1 receptor = biological target: T2, hNTS1 receptor (Homo sapiens, UniProt P30989); test: Competitive radioligand binding assay on the hNTS1 receptor; settings: displacement of 125I-[Tyr3]-NT, membranes of CHO-K1 cells expressing hNTS1; read-out: IC50 NTS1
T2 construct: membranes prepared from them
Experimental: as §1, §2, §3

T2 sequence (P30989 whole entry): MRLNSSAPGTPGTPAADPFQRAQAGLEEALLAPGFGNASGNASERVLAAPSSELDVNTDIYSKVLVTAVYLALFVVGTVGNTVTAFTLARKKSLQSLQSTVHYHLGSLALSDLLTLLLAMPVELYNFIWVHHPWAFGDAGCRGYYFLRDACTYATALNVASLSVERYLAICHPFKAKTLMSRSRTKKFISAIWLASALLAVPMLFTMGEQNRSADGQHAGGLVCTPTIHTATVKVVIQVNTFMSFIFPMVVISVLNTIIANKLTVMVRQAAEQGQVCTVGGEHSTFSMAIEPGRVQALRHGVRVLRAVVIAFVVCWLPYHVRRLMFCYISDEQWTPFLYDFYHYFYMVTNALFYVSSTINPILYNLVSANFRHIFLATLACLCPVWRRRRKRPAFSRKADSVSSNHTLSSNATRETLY
T1 sequence (O95665 whole entry): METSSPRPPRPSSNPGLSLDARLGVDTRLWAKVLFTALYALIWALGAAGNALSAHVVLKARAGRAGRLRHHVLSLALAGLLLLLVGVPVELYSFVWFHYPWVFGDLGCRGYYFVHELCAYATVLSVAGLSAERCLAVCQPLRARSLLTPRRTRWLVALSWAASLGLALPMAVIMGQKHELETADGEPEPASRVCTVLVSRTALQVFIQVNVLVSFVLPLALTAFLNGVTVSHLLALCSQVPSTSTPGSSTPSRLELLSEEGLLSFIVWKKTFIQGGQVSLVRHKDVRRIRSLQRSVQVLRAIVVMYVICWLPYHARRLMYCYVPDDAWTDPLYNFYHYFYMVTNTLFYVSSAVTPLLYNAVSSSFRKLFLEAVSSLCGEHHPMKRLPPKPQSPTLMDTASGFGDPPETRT

| SMILES | IC50 (hNTS2 receptor) [µM] | Selectivity (hNTS2 receptor) | IC50 (hNTS1 receptor) [µM] |
| --- | --- | --- | --- |
| CC(C)C[C@H](NC(=O)[C@H](Cc1ccc(O)cc1)NC(=O)[C@H]1CC=CC[C@@H](N)C(=O)N[C@@H](CCCCN)C(=O)N[C@@H](CCCCN)C(=O)N1)C(=O)O [compound 42, c[G*(All)KKG*(All)]YL] (H-[dAllylGly]KK[dAllylGly]YL-OH; staple 1-4) | 2.3 | >42 | > 100 |
| NCCCC[C@@H]1NC(=O)[C@H](CCCCN)NC(=O)[C@@H](N)CC=CC[C@@H](C(=O)N[C@@H](Cc2ccc(O)cc2)C(=O)N[C@@H](CC2CCC2)C(=O)O)NC1=O [compound 66, c[G(All)KKG(All)]YA(cyclobutyl)] (H-[AllylGly]KK[AllylGly]Y[Cba]-OH; staple 1-4) | 0.0272 | >3682 | > 100 |
| CC(C)C[C@H](NC(=O)[C@@H](CCCCN)NC(=O)[C@@H]1CC=CC[C@H](N)C(=O)N[C@@H](CCCCN)C(=O)N[C@@H](CCCCN)C(=O)N1)C(=O)O [compound 48, c[G(All)KKG(All)]K*L] (H-[AllylGly]KK[AllylGly][dK]L-OH; staple 1-4) | 10.1 | >10 | > 100 |
| CC(C)C[C@H](NC(=O)[C@H](Cc1ccc(-c2ccccc2)cc1)NC(=O)[C@@H]1CC=CC[C@H](N)C(=O)N[C@@H](CCCCN)C(=O)N[C@@H](CCCCN)C(=O)N1)C(=O)O [compound 139, c[G(All)KKG(All)]A (biphenyl)L] (H-[AllylGly]KK[AllylGly][Bip]L-OH; staple 1-4) | 0.0485 | 2061 | > 100 |
| CC(C)C[C@H](NC(=O)[C@H](Cc1ccc(O)cc1)NC(=O)[C@@H]1CC=CC[C@H](N)C(=O)N[C@@H](CCCN)C(=O)N[C@@H](CCCCN)C(=O)N1)C(=O)O [compound 79, c[G(All)OrnKG(All)]YL] (H-[AllylGly][Orn]K[AllylGly]YL-OH; staple 1-4) | 0.0775 | >1291 | > 100 |
| CC(C)C[C@H](NC(=O)[C@H](Cc1ccccn1)NC(=O)[C@@H]1CC=CC[C@H](N)C(=O)N[C@@H](CCCCN)C(=O)N[C@@H](CCCCN)C(=O)N1)C(=O)O [compound 165, c[G(All)KKG(All)]A(2-pyridyl)L] (H-[AllylGly]KK[AllylGly][2Pal]L-OH; staple 1-4) | 0.509 | 20 | > 100 |
| CC(C)C[C@H](NC(=O)[C@H](Cc1ccc(O)cc1)NC(=O)[C@@H]1CC=CC[C@H](NC(=O)[C@@H](N)CCCCN)C(=O)N[C@@H](CCCCN)C(=O)N[C@@H](CCCCN)C(=O)N1)C(=O)O [compound 156, Kc[G(All)KKG(All)]YL] (H-K[AllylGly]KK[AllylGly]YL-OH; staple 2-5) | 0.0066 | 15244 | > 100 |
| CC(C)C[C@H](NC(=O)[C@H](Cc1ccc(O)cc1)NC(=O)[C@@H]1CC=CC[C@H](N)C(=O)NCC(=O)N[C@@H](CCCCN)C(=O)N1)C(=O)O [compound 87, c[G(All)GKG(All)]YL] (H-[AllylGly]GK[AllylGly]YL-OH; staple 1-4) | 0.516 | >194 | > 100 |
| CC(C)C[C@H](NC(=O)[C@H](Cc1ccc(C(C)(C)C)cc1)NC(=O)[C@@H]1CC=CC[C@H](N)C(=O)N[C@@H](CCCCN)C(=O)N[C@@H](CCCCN)C(=O)N1)C(=O)O [compound 110, c[G(All)KKG(All)]F(4-tbu)L] (H-[AllylGly]KK[AllylGly][Phe(4-tBu)]L-OH; staple 1-4) | 0.0402 | >2488 | > 100 |
| CC(C)C[C@H](NC(=O)[C@H](Cc1ccc(O)cc1)NC(=O)[C@@H]1CCC(=O)NCCCC[C@H](N)C(=O)N[C@@H](CCCCN)C(=O)N[C@@H](CCCCN)C(=O)N1)C(=O)O [compound 101, c[KKKE]YL] (H-KKKEYL-OH; lactam 1-4) | 0.889 | >111 | > 100 |
| NCCCC[C@@H]1NC(=O)[C@H](CCCCN)NC(=O)[C@@H](N)CC=CC[C@@H](C(=O)N[C@@H](Cc2ccc(O)cc2)C(=O)N[C@@H](CC2CC2)C(=O)O)NC1=O [compound 65, c[G(All)KKG(All)]YA(cyclopropyl)] (H-[AllylGly]KK[AllylGly]Y[Ala(cPr)]-OH; staple 1-4) | 0.312 | >321 | > 100 |
| CC(C)C[C@H](NC(=O)[C@H](Cc1ccc(O)cc1)NC(=O)C1(C)CCCC=CCCC(=O)N[C@@H](CCCCN)C(=O)N[C@@H](CCCCN)C(=O)N1)C(=O)O (stereo partly drawn) [compound 132, c[K(Pentenoyl)KG(alpha-Me-(4-pentenyl))]YL] | 0.136 | 733 | > 100 |
| CC(C)C[C@H](NC(=O)[C@H](Cc1ccc(O)cc1)NC(=O)[C@H]1NC(=O)[C@H](CCCCN)NC(=O)[C@H](CCCCN)NC(=O)[C@@H](N)CSSC1(C)C)C(=O)O [compound 153, c[CKKPen]YL] (H-CKK[Pen]YL-OH; disulfide 1-4) | 0.0348 | 2871 | > 100 |
| CCC[C@@H]1NC(=O)[C@@H](N)CC=CC[C@@H](C(=O)N[C@@H](Cc2ccc(O)cc2)C(=O)N[C@@H](CC(C)C)C(=O)O)NC(=O)[C@H](CCCCN)NC1=O [compound 86, c[G(All)NvaKG(All)]YL] (H-[AllylGly][Nva]K[AllylGly]YL-OH; staple 1-4) | 0.743 | >135 | > 100 |
| CC(C)C[C@H](NC(=O)[C@H](Cc1ccc(Br)cc1)NC(=O)C1(C)CCCC=CCCC(=O)N[C@@H](CCCCN)C(=O)N[C@@H](CCCCN)C(=O)N1)C(=O)O (stereo partly drawn) [compound 136, c[PentenoylKKG(alpha-Me-(4-pentenyl))]F(4-bromo)L] | 0.0377 | 2653 | > 100 |
| CC(C)C[C@H](NC(=O)[C@H](Cc1ccc(O)cc1)NC(=O)[C@@H]1CC=CC[C@H](N)C(=O)N[C@@H](CCCCCN)C(=O)N[C@@H](CCCCCN)C(=O)N1)C(=O)O [compound 151, c[G(All)K(homo)K (homo)G(All)]YL] (H-[AllylGly][hLys][hLys][AllylGly]YL-OH; staple 1-4) | 0.104 | 962 | > 100 |
| CC(C)C[C@H](NC(=O)[C@H](Cc1ccc(O)cc1)NC(=O)[C@@H]1CC=CC[C@@H](N)C(=O)N[C@@H](CCCCN)C(=O)N[C@@H](CCCCN)C(=O)N1)C(=O)O [compound 41, c[G*(All)KKG(All)]YL] (H-[dAllylGly]KK[AllylGly]YL-OH; staple 1-4) | 0.113 | >889 | > 100 |
| CC(C)C[C@H](NC(=O)[C@H](Cc1ccc(O)cc1)NC(=O)[C@@H]1CCCCNC(=O)C[C@H](N)C(=O)N[C@@H](CCCCN)C(=O)N[C@@H](CCCCN)C(=O)N1)C(=O)O [compound 109, c[DKKK]YL] (H-DKKKYL-OH; lactam 1-4) | – | – | > 100 |
| CC(C)C[C@H](NC(=O)[C@H](Cc1ccc(O)cc1)NC(=O)[C@@H]1CCCNC(=O)C[C@H](N)C(=O)N[C@@H](CCCCN)C(=O)N[C@@H](CCCCN)C(=O)N1)C(=O)O [compound 107, c[DKKOrn]YL] (H-DKK[Orn]YL-OH; lactam 1-4) | – | – | > 100 |
| CC(=O)Oc1ccc(C[C@H](NC(=O)[C@@H]2CC=CC[C@H](N)C(=O)N[C@@H](CCCCN)C(=O)N[C@@H](CCCCN)C(=O)N2)C(=O)N[C@@H](CC(C)C)C(=O)O)cc1 [compound 15, c[G(All)KKG(All)]Y(OAc)L] (H-[AllylGly]KK[AllylGly]Y(Ac)L-OH; staple 1-4) | – | – | > 100 |
| CC(C)C[C@H](NC(=O)[C@H](Cc1ccc(O)cc1)NC(=O)[C@@H]1CNC(=O)CC[C@H](N)C(=O)N[C@@H](CCCCN)C(=O)N[C@@H](CCCCN)C(=O)N1)C(=O)O [compound 102, c[EKKDap]YL] (H-EKK[Dap]YL-OH; lactam 1-4) | – | – | > 100 |
| CC(C)C[C@H](NC(=O)[C@H](Cc1ccc(O)cc1)NC(=O)[C@@H]1CCCCNC(=O)CC[C@H](N)C(=O)N[C@@H](CCCCN)C(=O)N[C@@H](CCCCN)C(=O)N1)C(=O)O [compound 108, c[EKKK]YL] (H-EKKKYL-OH; lactam 1-4) | – | – | > 100 |
| CC(C)C[C@H](NC(=O)[C@H](Cc1ccc(O)cc1)NC(=O)[C@@H]1CCCNC(=O)CC[C@H](N)C(=O)N[C@@H](CCCCN)C(=O)N[C@@H](CCCCN)C(=O)N1)C(=O)O [compound 106, c[EKKOrn]YL] (H-EKK[Orn]YL-OH; lactam 1-4) | – | – | > 100 |
